The star is where a group is joined. 5‑TAMRA = CN(C)c1ccc2c(-c3ccc(C(=O)*)cc3C(=O)[O-])c3ccc(N(C)C)cc3[o+]c2c1
Columns and labels:
[1] = tested on: yeast OST3 complex; test: Inhibition of OST activity by nonhydrolyzable LLO analogs; format: biochemical, Saccharomyces cerevisiae; conditions: for IC50: 0.1 μM purified OST3 complex, 25 μM TAMRA-YANATS, 50 μM LLO C20, inhibitor 2.5–2000 μM (Ia) or 2.5–3000 μM (Ib), 30 °C, read-out: IC50 (apparent)
From the text: Figure 4 Inhibition of yeast OST activity by synthetic nonhydrolyzable LLOs in vitro.A, structure of synthetic nonhydrolyzable LLOs. Synthetic nonreactive LLOs have two GlcNAcs as the sugar moiety, followed by pyrophosphonate and lipid moieties of variable stereochemistry and length, denoted by the carbon chain length. Ia, GlcNAc2-(OH)CPP-(S)-citronellylneryl (C20); Ib, GlcNAc2-CPP-(S)-citronellylfarnesyl (C25). Note that Ia is a hydroxy-phosphonate (with an additional OH group, single diastereomer, R/S configuration unassigned), while Ib is a phosphonate without an additional hydroxyl group. Figure modified from Ramirez et al. 2017 ([42]). B, quantification of inhibition by nonhydrolyzable LLOs shown in A. Reactions were performed with 0.1 μM purified OST3 complex, 25 μM peptide TAMRA-YANATS, 50 μM LLO C20, and varying concentrations of the different synthetic inhibitory LLOs. Glycopeptide product was measured by UPLC and turnover rates were determined from the linear initial phase of the reaction. % inhibition was determined relative to a control reaction without nonhydrolyzable LLOs. […]
(§1) Concentrations of reactive LLO analogs were determined by in vitro glycosylation (see below) by titrating varying amounts of LLO against a known amount of fluorescently labeled peptide. Concentrations of nonreactive LLO analogs were determined by in vitro glycosylation by titrating varying amounts of nonreactive LLO while using known amounts of both fluorescently labeled peptide and active LLO analog.
Reactions were performed in a total volume of 10 μl containing the specified amount of TAMRA-labeled peptide, synthetic LLO analog, 10 mM MnCl2, and purified OST after size-exclusion chromatography in purification buffer (50 mM Hepes, pH 7.5, 150 mM NaCl, 1 mM MgCl2, 1 mM MnCl2, 10% (v/v) glycerol, 0.03% (w/v) DDM, and 0.006% (w/v) CHS). The concentration of OST was calculated using the molecular weight of 280 kDa. […]
(§2) Samples were analyzed by reverse-phase chromatography using a UPLC Dionex UltiMate 3000 with an Accucore 150-C18 100 × 2.1 mm 2.6 μm column (Thermo Fisher Scientific). […]

[2] = tested on: TbStt3A; conditions: reported for TbStt3A, compound 34d; ref [42]; cited from earlier work
From the text: The nonreactive LLO analogs Ia and Ib had the same disaccharide and lipid structures as the reactive LLO substrates LLO C20 and LLO C25, respectively. However, they differed from their reactive counterpar ...

[3] = biological target: T1, OST3 complex (Saccharomyces cerevisiae, UniProt P39007); test: Peptide competition assay (unlabeled peptide vs TAMRA-DANYTK); format: biochemical; conditions: 0.4 μM purified OST3 complex, 150 μM LLO C20, 25 μM TAMRA-DANYTK, 25 μM unlabeled competitor peptide, 30 min, relative to control without competitor
T1 construct: were purified separately from strains expressing only one type of complex; made in house; host or cells: Saccharomyces cerevisiae, BY4742-derived strain ost6::LEU2MX6 OST4-1D4::kanMX6 YEp352-OST3
Method: Figure 2 In vitro glycosylation assay for OST activity and peptide sequence preferences.A, schematic representation of the in vitro reaction setup for yeast OST activity. The peptide substrate containing the glycosylation sequon N-X-(S/T) is labeled with the TAMRA fluorophore at the N-terminus. Incubation with OST, synthetic LLO, and a divalent metal ion (Mn^2+preferred) results in the transfer of the sugar moiety (two GlcNAcs, blue squares) from the LLO to the fluorescently labeled peptide, yielding a glycopeptide product. […] The glycopeptide elutes earlier than the peptide and amounts of glycopeptide are quantified at different reaction time points by peak integration. C, quantification of kinetic parameters for synthetic peptide TAMRA-DANYTK. […] Glycopeptide product was measured by UPLC and turnover rates were determined by linear regression of the initial phase of the reaction and taking into account the enzyme concentration. […] E, quantification of kinetic parameters for synthetic peptide TAMRA-YANATS. […] Turnover rates were determined as in C. […]
as §2

[4] = biological target: T1, OST3 complex; test: Turnover of synthetic TAMRA-labeled peptides; format: biochemical; conditions: 0.5 µM OST3 complex, 20 µM peptide
Method: TAMRA-labeled peptides with 5-TAMRA at the N-terminus and an amide group at the C-terminus were synthesized by WatsonBio Sciences. Unlabeled peptides (Table S1) were synthesized by Genscript Corp. and were designed so that the asparagine of the glycosylation sequon was in the middle (except for Peptide 8). Lyophilized peptides were dissolved in dimethyl sulfoxide (DMSO), unless specified otherwise, to a 3 mM stock solution and further diluted in ddH2O for reactions.
(§3) Reactions were performed in a total volume of 10 μl containing the specified amount of TAMRA-labeled peptide, synthetic LLO analog, 10 mM MnCl2, and purified OST after size-exclusion chromatography in purification buffer (50 mM Hepes, pH 7.5, 150 mM NaCl, 1 mM MgCl2, 1 mM MnCl2, 10% (v/v) glycerol, 0.03% (w/v) DDM, and 0.006% (w/v) CHS). The concentration of OST was calculated using the molecular weight of 280 kDa. The reaction mixture was preincubated at 30 °C for 5 min before adding the peptide to start the reaction that proceeded at 30 °C. Time points were taken such that the reaction was in the linear phase. At each time point, 1 μl reaction mixture was taken and the reaction was stopped by dilution in stop solution (0.1% FA in 10% ACN, 10 mM KPO4 pH 8.0) such that the final peptide concentration was 2 μM.
(§4) Samples were analyzed by reverse-phase chromatography using a UPLC Dionex UltiMate 3000 with an Accucore 150-C18 100 × 2.1 mm 2.6 μm column (Thermo Fisher Scientific). One microliter sample (2 pmol of peptide) was injected and measured by isocratic elution using a certain proportion of ACN (15% ACN for peptide TAMRA-DANYTK; 20% ACN for peptide TAMRA-YANATS) in 10 mM KPO4, pH 8.0 buffer so that the glycopeptide and peptide are fully separated and elute within 3 min at a constant flow rate of 0.7 ml/min, with a column temperature of 45 °C. The peptide and glycopeptide were detected through TAMRA fluorescence (excitation wavelength: 546 nm; emission wavelength: 579 nm).
The UPLC profiles were analyzed by integrating the peaks corresponding to the glycopeptide and peptide using Chromeleon 7 (Dionex) and calculating the amount of glycopeptide formed using the following equation, as previously described ([43]): [GP]=PeakareaGP/PeakareaP+PeakareaGP×[P] […]
Supp. Table 2. Turnover of synthetic TAMRA-labeled peptides
Peptide Glycopeptide Turnover after 5 min Relative turnover […]
TAMRA, tetramethylrhodamine
Turnover of TAMRA-labeled peptides after 5 min was determined using 0.5 µM OST3 complex, 20 µM indicated peptide and 150 µM LLO C20. Relative turnover compared to TAMRA-DANYTK is given by defining TAMRA-DANYTK turnover as 100 %.

[5] = biological target: T1, OST3 complex; test: In vitro glycosylation assay, kinetic parameters for synthetic LLOs, OST3 complex; format: biochemical; conditions: OST3 complex, under the tested conditions
From the text: Synthetic LLO substrates all have two GlcNAcs as the sugar moiety, followed by pyrophosphate and lipid moieties (−R) of variable stereochemistry and length, denoted by the carbon chain length. C10, (S)-citronellyl; C15, farnesyl; C20, (S)-citronellylneryl; C25, (S)-citronellylfarnesyl; C90, represents the natural yeast dolichol lipid tail structure where n = 15. Figure modified from Ramirez et al. 2017 ([42]). B, quantification of kinetic parameters for the synthetic LLOs. Reactions were performed with 0.1 μM purified OST3 complex, 25 μM peptide TAMRA-YANATS, and varying concentrations of the different synthetic LLOs. Glycopeptide product was measured by UPLC and turnover rates were determined from the linear initial phase of the reaction. The mean of three reactions is shown and the data were fitted by nonlinear regression according to the Michaelis–Menten formula (R^2 = 0.9842 (LLO C15), 0.9685 (LLO C20), 0.9261 (LLO C25)) using Prism. Error bars indicate standard deviations from the mean (n = 3).
as §1
as §3, with “At each time point, 1 μl reaction mixture was taken and the reaction was stopped by dilution in stop solution (0.1% FA in 10% ACN, 10 mM KPO4 pH 8.0) such that the final peptide concentration was 2 μM.” left out
as §4
The UPLC profiles were analyzed by integrating the peaks corresponding to the glycopeptide and peptide using Chromeleon 7 (Dionex) and calculating the amount of glycopeptide formed using the following equation, as previously described ([43]): [GP]=PeakareaGP/PeakareaP+PeakareaGP×[P]
[GP] is the concentration of glycopeptide, Peak areaGP/P is the area under the curves measured for the glycopeptide or peptide, respectively, and [P] is the concentration of peptide at the start of the reaction. […] Unless specified otherwise, turnover rates were determined from the initial rates of reaction by taking into account the enzyme concentration in the reaction. […]

[6] = biological target: Ost3p-containing yeast oligosaccharyltransferase complex (S. cerevisiae) (UniProt P41543)
[7] = biological target: Ost6p-containing yeast oligosaccharyltransferase complex (S. cerevisiae) (UniProt P41543)

GlcNAc2-(OH)CPP-(S)-citronellylneryl [Ia]
IC50 [1]: 44 µM
relative inhibitory potency, in words ([1]; OST3 complex): more potent inhibitor of the yeast OST3 complex than Ib

GlcNAc2-CPP-(S)-citronellylfarnesyl [Ib]
IC50 [1]: 198 µM
IC50 [2]: 26 ± 3 µM

ADTYANATSDVL [Peptide 5]
% inhibition of TAMRA-DANYTK glycopeptide formation [3]: 50%

TAMRA-ADTYANATSDVL [TAMRA-labeled Peptide 5]
Turnover after 5 min ([4]; 150 µM LLO C20): 10%
Glycopeptide detected ([4]; 150 µM LLO C20, 5 min): Yes
Relative turnover ([4]; TAMRA-DANYTK turnover defined as 100 %, 5 min, 150 µM LLO C20): 167%

CC(=O)NC1C(OC2C(CO)OC(OP(=O)(O)OP(=O)(O)OCCC(C)CCC=C(C)C)C(NC(C)=O)C2O)OC(CO)C(O)C1O (stereo not drawn) [LLO C10]
activity as LLO substrate [5]: no detectable activity

B1: TAMRA-YANATS (peptide)
peptide: {5‑TAMRA}-YANATS-NH2
SMILES: C[C@H](NC(=O)[C@H](Cc1ccc(O)cc1)NC(=O)c1ccc(-c2c3ccc(N(C)C)cc3[o+]c3cc(N(C)C)ccc23)c(C(=O)[O-])c1)C(=O)N[C@@H](CC(N)=O)C(=O)N[C@@H](C)C(=O)N[C@H](C(=O)N[C@@H](CO)C(N)=O)[C@@H](C)O
apparent KM of the peptide in the in vitro glycosylation assay (Michaelis-Menten fit; 0.1 μM OST3 complex, 100 μM LLO C20, 10-500 μM peptide, 30 °C) [6]: 55.6 µM
apparent KM of the peptide in the in vitro glycosylation assay (Michaelis-Menten fit; 0.1 μM OST6 complex, 100 μM LLO C20, varying peptide, 30 °C) [7]: 44.8 µM

B2: TAMRA-DANYTK-NH2 (peptide)
peptide: {5‑TAMRA}-DANYTK-NH2
SMILES: C[C@H](NC(=O)[C@H](CC(=O)O)NC(=O)c1ccc(-c2c3ccc(N(C)C)cc3[o+]c3cc(N(C)C)ccc23)c(C(=O)[O-])c1)C(=O)N[C@@H](CC(N)=O)C(=O)N[C@@H](Cc1ccc(O)cc1)C(=O)N[C@H](C(=O)N[C@@H](CCCCN)C(N)=O)[C@@H](C)O
apparent KM of the peptide in the in vitro glycosylation assay (Michaelis-Menten fit; about 1 μM OST3 complex, 150 μM LLO C20, 10-400 μM peptide, 30 °C) [6]: 201 µM
